# Columns and labels:
# [1] = test system: Ba/F3 cells expressing EML4-ALK C1156Y–L1198F; experiment: Ba/F3 cell-survival assay; type: cell-based
# [2] = test system: Ba/F3 cells expressing EML4-ALK L1198F; experiment: Ba/F3 cell-survival assay; type: cell-based
# [3] = test system: metastatic ALK-rearranged NSCLC; experiment: Case report: treatment course of a patient with metastatic ALK-rearranged NSCLC; type: in vivo, human; conditions: first restaging CT after 5 weeks of treatment, phase 1 trial, single patient
# [4] = test system: ALK; conditions: in cell lines; cited from earlier work
# [5] = test system: previously treated NSCLC; conditions: patients with previously treated NSCLC, phase 3 trial; cited from earlier work
compound,measurement,setting,value
"C[C@H]1Oc2cc(cnc2N)-c2c(nn(C)c2C#N)CN(C)C(=O)c2ccc(F)cc21 [lorlatinib, (10R)-7-amino-12-fluoro-2,10,16-trimethyl-15-oxo-10,15,16,17-tetrahydro-2H-8,4-(metheno)pyrazolo [4,3-h][2,5,11]-benzoxadiazacyclotetra decine-3-carbonitrile]",Sensitivity in cell-survival assay (in words),[1],resistant
same,Sensitivity in cell-survival assay (in words),[2],variable degrees of resistance
same,Reduction in tumor burden,[3],41%
same,Potency against ALK,[4],subnanomolar to low nanomolar
CCC1=C[C@@H]2CN(C1)Cc1c([nH]c3ccccc13)[C@@](C(=O)OC)(c1cc3c(cc1OC)N(C)[C@H]1[C@@](O)(C(=O)OC)[C@H](OC(C)=O)[C@]4(CC)C=CCN5CC[C@]31[C@@H]54)C2 [vinorelbine],Response rate,[5],0.8%
